Results: the supplement of paper PMC10307832

Legend:
Experiment in all cases: relative viability (nuclei count vs DMSO), 5 days (fraction); higher = more cells survive
[1] = compound: Cc1cnc(CNC(=O)c2c(=O)c3ccc(N4CCCN(C)CC4)nc3n3c2sc2ccccc23)cn1 [CX-5461] + CC1(C)CCC(c2ccc(Cl)cc2)=C(CN2CCN(c3ccc(C(=O)NS(=O)(=O)c4ccc(N[C@H](CCN5CCOCC5)CSc5ccccc5)c(S(=O)(=O)C(F)(F)F)c4)cc3)CC2)C1 [Navitoclax] (partner 0.5 µM)
Outline: (§1)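 Relative viability equals treated-well nuclei counts divided by vehicle-well nuclei counts. Counts came from 4× images of lung cancer cell lines grown in 1536-well plates for 5 days after pin-tool dosing on the day after seeding. Dosing used one drug alone or a fixed anchor-drug dose plus five library-drug doses (not always all listed) in √10 steps, and values are medians of duplicate plates.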

[2] = compound: Cc1cnc(CNC(=O)c2c(=O)c3ccc(N4CCCN(C)CC4)nc3n3c2sc2ccccc23)cn1 [CX-5461] + CS(=O)(=O)CCNCc1ccc(-c2ccc3ncnc(Nc4ccc(OCc5cccc(F)c5)c(Cl)c4)c3c2)o1 [Lapatinib] (partner 2 µM)
Outline: as §1

[3] = compound: O=C(Nc1cc(C(F)(F)F)cc(C(F)(F)F)c1)c1cc(Cl)ccc1O [IMD-0354] + CCNC(=O)c1noc(-c2cc(C(C)C)c(O)cc2O)c1-c1ccc(CN2CCOCC2)cc1 [Luminespib] (partner 0.01 µM)
Outline: as §1

[4] = compound: O=C(Nc1cc(C(F)(F)F)cc(C(F)(F)F)c1)c1cc(Cl)ccc1O [IMD-0354] + Cc1nc(Nc2ncc(C(=O)Nc3c(C)cccc3Cl)s2)cc(N2CCN(CCO)CC2)n1 [Dasatinib] (partner 0.075 µM)
Outline: as §1

| Cell Line | relative viability ([1]; first compound 0.01 µM) | relative viability ([1]; first compound 0.03162 µM) | relative viability ([1]; first compound 0.1 µM) | relative viability ([1]; first compound 0.3162 µM) | relative viability ([1]; first compound 1 µM) | relative viability ([2]; first compound 0.01 µM) | relative viability ([2]; first compound 0.03162 µM) | relative viability ([2]; first compound 0.1 µM) | relative viability ([2]; first compound 0.3162 µM) | relative viability ([2]; first compound 1 µM) | relative viability ([3]; first compound 0.04 µM) | relative viability ([3]; first compound 0.1265 µM) | relative viability ([3]; first compound 0.4 µM) | relative viability ([3]; first compound 1.265 µM) | relative viability ([3]; first compound 4 µM) | relative viability ([4]; first compound 0.04 µM) | relative viability ([4]; first compound 0.1265 µM) | relative viability ([4]; first compound 0.4 µM) | relative viability ([4]; first compound 1.265 µM) | relative viability ([4]; first compound 4 µM) |
| --- | --- | --- | --- | --- | --- | --- | --- | --- | --- | --- | --- | --- | --- | --- | --- | --- | --- | --- | --- | --- |
| PC-3 [JPC-3] | 0.86 | 0.861 | 0.746 | 0.784 | 0.821 | 0.453 | 0.443 | 0.464 | 0.421 | 0.473 | 0.688 | 0.53 | 0.569 | 0.351 | 0.259 | 1.12 | 0.878 | 0.761 | 0.399 | 0.275 |
| NCI-H2228 | 0.822 | 0.572 | 0.513 | 0.552 | 0.0937 | 1.13 | 0.764 | 0.473 | 0.668 | 0.166 | 0.102 | 0.169 | 0.109 | 0.128 | 0.145 | 0.538 | 0.487 | 0.373 | 0.184 | 0.202 |
| HOP-62 | 0.908 | 1.16 | 1.21 | – | 1.02 | 1.11 | 1.12 | 1.23 | 0.167 | 0.908 | 0.998 | 0.864 | 0.53 | 0.509 | 0.166 | 0.629 | 0.637 | 0.441 | 0.213 | 0.164 |
| HARA | 1.11 | 1.23 | 1.17 | 1.08 | 1.12 | 0.904 | 0.921 | 0.84 | 0.861 | 0.348 | 0.863 | 0.689 | 0.37 | 0.16 | 0.125 | 0.324 | 0.253 | 0.185 | 0.103 | 0.0678 |
| NCI-H838 | 1.22 | 1.24 | 1.21 | 1.06 | 0.897 | 1.17 | 1.11 | 1.05 | 0.252 | 0.6 | 0.571 | 0.246 | 0.27 | 0.217 | 0.244 | 0.239 | 0.321 | 0.256 | 0.239 | 0.214 |
| NCI-H1755 | 0.979 | 0.992 | 1.01 | 0.997 | 0.883 | 1.05 | 1.03 | 1.06 | 0.531 | 0.972 | 0.321 | 0.515 | 0.312 | 0.456 | 0.289 | 0.438 | 0.461 | 0.395 | 0.243 | 0.34 |
| NCI-H322M | 1.34 | 1.31 | 1.12 | – | 1.17 | 0.552 | 0.564 | 0.644 | – | 0.655 | 0.94 | 0.895 | 0.618 | 0.317 | 0.355 | 0.25 | 0.277 | 0.248 | 0.222 | 0.274 |
| NCI-H3122 | 0.966 | 1.04 | 1.03 | 1.01 | 0.97 | 1.01 | 0.992 | 0.897 | 1 | 0.854 | 0.0711 | 0.103 | 0.0803 | 0.0918 | 0.0652 | 0.843 | 0.824 | 0.321 | 0.286 | 0.0969 |
